Values of other authors in publication PMC11070244 (Current Research in Structural Biology, 2024).

Columns and labels:
BChE [1] = target: T1, BChE (Homo sapiens, UniProt P06276); conditions: in vitro experiments; ref Durmaz et al. (2023)
AChE = AChE (Homo sapiens, UniProt P22303); conditions: in vitro experiments; ref Durmaz et al. (2023)
BChE [2] = target: T1, BChE; conditions: ref Khan et al., 2009

T1 sequence (P06276 29-602, species assumed): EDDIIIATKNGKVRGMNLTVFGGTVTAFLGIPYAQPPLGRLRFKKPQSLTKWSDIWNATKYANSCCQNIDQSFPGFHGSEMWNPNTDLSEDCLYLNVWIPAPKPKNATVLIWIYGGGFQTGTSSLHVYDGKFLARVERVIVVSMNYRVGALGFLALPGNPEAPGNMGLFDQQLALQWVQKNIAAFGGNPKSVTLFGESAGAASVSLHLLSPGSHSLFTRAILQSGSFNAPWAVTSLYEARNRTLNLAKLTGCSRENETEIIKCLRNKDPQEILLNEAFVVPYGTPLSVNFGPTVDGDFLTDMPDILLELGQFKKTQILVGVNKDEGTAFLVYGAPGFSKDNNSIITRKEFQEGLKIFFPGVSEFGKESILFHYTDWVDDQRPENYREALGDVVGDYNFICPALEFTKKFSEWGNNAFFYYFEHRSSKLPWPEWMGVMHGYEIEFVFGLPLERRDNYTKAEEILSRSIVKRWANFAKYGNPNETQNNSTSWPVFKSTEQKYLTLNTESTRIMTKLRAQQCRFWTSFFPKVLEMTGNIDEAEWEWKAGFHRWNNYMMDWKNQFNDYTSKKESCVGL
Sequence of AChE (P22303 32-614): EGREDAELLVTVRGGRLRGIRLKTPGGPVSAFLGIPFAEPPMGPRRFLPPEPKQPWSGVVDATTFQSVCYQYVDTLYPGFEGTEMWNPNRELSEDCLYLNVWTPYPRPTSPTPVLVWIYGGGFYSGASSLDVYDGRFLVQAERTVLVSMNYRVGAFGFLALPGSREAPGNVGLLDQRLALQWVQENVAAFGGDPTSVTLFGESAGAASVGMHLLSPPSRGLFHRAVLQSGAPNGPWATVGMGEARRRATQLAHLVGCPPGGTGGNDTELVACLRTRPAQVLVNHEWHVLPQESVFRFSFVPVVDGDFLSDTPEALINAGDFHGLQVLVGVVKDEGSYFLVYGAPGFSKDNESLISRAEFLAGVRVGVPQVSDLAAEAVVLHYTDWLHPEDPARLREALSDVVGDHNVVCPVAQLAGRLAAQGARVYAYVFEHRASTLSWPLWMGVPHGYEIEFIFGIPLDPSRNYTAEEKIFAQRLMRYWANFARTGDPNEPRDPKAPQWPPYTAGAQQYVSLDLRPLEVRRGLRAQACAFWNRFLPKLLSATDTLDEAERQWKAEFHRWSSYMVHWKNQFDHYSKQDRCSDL

Compound	Inhibition of BChE activity (BChE [1])	Inhibition of AChE activity (AChE)	Docking score with BChE compared to donepezil (BChE [2])
O=C(O)[C@H]1O[C@@H](Oc2cc3oc(-c4ccccc4)cc(=O)c3c(O)c2O)[C@H](O)[C@@H](O)[C@@H]1O [baicalin]	significantly inhibited	significantly inhibited	–
O=c1c(O)c(-c2ccc(O)c(O)c2)oc2cc(O)cc(O)c12 [quercetin]	–	–	stronger docking score
